The results in this text go back to ChEMBL document CHEMBL1201862, “PubChem BioAssay data set” (2004).

Targets include Cytochrome P450 2D6 (Homo sapiens, UniProt P10635); Cytochrome P450 2C9 (Homo sapiens, UniProt P11712); Cytochrome P450 3A4 (Homo sapiens, UniProt P08684).
The target in data set [1] is FAD-linked sulfhydryl oxidase ALR (Homo sapiens, UniProt P55789). Kind of data set: inhibitors of human ALR sulfhydryl oxidase, dose response, biochemical, H2O2 detection, luminescence, cherry-pick (AID 493248).
The target of a further data set is T1, Cytochrome P450 1A2 (Homo sapiens, UniProt P05177).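 Further: PubChem cytochrome P450 panel assay, CYP1A2 panel member.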
T1 sequence (P05177 whole entry): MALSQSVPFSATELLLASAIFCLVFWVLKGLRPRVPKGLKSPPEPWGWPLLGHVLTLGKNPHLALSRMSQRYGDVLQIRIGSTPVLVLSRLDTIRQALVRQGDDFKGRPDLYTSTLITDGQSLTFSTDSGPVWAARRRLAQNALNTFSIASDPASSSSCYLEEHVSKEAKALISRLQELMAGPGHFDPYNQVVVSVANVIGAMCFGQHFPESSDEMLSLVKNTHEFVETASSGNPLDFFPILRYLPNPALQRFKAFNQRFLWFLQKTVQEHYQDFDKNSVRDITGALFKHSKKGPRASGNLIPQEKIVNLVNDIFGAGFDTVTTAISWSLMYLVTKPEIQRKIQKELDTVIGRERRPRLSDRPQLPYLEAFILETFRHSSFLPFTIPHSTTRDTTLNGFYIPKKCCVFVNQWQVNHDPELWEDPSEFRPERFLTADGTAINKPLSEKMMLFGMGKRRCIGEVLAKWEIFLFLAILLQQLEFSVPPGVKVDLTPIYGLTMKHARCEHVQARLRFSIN

A short description of data set [2]: inhibitors of firefly luciferase expression or activity, dose response, H4 neuroglioma cells, luminescence (AID 1990). It is filed as functional, cell-based.
Data set [3] in a line: Luminescence Cell-Based Dose Response HTS to Identify Inhibitors of 5'UTR Stem-Loop Driven Prion Protein mRNA Translation in H4 Neuroglioblastoma Cells. [Related pubchem assays: 1827 (Project Summary), 1813 (Primary HTS)]. It is filed as functional.
A short description of data set [4]: inhibitors of SNCA 5'UTR-driven reporter translation, confirmation, H4 neuroglioma cells, luminescence (AID 1988). It is filed as functional, cell-based.
In data set [5] the target is T2, Corticotropin-releasing factor receptor 2/Corticotropin-releasing factor-binding protein (Homo sapiens, UniProt P24387+Q13324).
T2 sequence (Q13324 whole entry): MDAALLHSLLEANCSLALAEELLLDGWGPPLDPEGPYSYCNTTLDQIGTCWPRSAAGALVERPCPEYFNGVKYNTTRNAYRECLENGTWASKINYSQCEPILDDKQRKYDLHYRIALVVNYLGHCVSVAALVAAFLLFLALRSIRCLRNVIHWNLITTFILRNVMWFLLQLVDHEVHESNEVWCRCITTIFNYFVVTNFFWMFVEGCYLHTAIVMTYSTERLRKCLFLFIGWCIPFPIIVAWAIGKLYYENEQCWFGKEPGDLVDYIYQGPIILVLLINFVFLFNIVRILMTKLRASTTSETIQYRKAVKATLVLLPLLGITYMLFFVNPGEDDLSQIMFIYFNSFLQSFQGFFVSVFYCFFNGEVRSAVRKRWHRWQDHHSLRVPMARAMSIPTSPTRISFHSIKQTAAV
T2 sequence (P24387 whole entry): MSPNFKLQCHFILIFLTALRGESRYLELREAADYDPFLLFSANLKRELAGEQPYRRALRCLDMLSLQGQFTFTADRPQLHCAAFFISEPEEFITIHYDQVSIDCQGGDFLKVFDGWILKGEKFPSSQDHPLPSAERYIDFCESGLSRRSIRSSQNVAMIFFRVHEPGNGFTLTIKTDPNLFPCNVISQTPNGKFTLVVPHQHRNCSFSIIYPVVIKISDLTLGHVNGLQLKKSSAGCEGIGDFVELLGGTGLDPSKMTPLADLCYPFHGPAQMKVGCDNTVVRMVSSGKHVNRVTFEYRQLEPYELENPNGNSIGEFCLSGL
Kind of data set: activators of CRF receptor 2 with binding protein – uHTS hits, confirmation (AID 602473). It is filed as functional. The settings on record: read-out: EC50_Mean.

Another data set addresses Cytochrome P450 2C19 (Homo sapiens, UniProt P33261). Kind of data set: Cytochrome panel assay with activity outcomes. Panel member name: p450-cyp2c19 Compounds with AC50 equal or less than 10 uM are considered active. It is filed as functional.
A short description of data set [6]: Luminescence Cell-Based Dose Retest to Confirm Inhibitors of Cancer Stem Cells. [Related pubchem assays (depositor defined):AID2717, AID2721]. It is filed as functional. Particulars: Homo sapiens.
In another data set the target is T3, Protein skinhead-1 (Caenorhabditis elegans, UniProt P34707).
T3 sequence (P34707 whole entry): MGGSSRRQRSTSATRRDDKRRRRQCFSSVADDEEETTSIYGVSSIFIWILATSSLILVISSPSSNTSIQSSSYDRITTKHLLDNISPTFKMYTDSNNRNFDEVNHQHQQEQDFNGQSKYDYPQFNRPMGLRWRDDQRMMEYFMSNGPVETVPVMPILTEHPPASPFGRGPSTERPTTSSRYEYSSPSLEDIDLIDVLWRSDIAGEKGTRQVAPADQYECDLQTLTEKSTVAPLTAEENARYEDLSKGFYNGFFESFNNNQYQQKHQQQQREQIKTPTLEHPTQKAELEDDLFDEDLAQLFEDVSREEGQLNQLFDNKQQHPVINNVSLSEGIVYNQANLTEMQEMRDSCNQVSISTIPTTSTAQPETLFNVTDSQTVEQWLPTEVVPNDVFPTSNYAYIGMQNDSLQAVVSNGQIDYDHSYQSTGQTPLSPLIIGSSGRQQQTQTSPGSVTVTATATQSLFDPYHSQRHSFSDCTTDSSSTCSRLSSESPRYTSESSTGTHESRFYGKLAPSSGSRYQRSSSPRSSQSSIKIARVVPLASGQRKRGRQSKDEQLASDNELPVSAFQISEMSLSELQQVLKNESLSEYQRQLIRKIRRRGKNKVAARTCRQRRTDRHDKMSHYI
Format: functional.

Calls of active or inactive are those of the source. A value given as a limit tells only on which side of the number the result lay.

Chain of FAD-linked sulfhydryl oxidase ALR (P55789 whole entry): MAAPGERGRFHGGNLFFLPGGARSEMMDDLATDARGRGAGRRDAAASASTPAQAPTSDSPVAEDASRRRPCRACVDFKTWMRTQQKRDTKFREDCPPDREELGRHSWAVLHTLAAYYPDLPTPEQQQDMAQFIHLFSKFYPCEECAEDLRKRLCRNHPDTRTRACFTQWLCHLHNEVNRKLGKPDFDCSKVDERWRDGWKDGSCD
Chain of Cytochrome P450 2D6 (P10635 whole entry): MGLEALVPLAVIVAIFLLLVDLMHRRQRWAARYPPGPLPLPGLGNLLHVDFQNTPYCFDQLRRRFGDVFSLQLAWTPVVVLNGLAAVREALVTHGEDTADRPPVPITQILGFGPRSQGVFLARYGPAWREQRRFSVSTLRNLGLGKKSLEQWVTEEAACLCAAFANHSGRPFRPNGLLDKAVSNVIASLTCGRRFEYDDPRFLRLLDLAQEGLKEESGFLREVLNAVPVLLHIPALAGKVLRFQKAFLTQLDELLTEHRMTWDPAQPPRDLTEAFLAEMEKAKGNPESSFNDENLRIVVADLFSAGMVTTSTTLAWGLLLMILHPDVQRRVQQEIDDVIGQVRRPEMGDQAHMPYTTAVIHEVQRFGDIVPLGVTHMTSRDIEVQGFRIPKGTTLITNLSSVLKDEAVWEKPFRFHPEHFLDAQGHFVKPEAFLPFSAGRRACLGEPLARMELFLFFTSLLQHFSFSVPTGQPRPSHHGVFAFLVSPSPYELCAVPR
Chain of Cytochrome P450 2C9 (P11712 whole entry): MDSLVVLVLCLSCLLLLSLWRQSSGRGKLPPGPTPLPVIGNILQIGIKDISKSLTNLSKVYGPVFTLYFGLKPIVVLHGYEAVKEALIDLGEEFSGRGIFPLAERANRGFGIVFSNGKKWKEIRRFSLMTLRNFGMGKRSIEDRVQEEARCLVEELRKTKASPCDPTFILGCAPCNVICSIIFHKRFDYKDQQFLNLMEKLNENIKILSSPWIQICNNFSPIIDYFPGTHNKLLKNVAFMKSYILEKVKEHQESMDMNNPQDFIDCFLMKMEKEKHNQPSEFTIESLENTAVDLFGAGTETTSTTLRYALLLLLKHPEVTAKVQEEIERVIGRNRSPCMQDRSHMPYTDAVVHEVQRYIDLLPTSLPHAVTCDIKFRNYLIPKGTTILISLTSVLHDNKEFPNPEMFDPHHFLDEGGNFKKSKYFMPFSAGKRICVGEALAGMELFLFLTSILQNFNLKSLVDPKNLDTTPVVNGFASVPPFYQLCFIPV
Chain of Cytochrome P450 2C19 (P33261 whole entry): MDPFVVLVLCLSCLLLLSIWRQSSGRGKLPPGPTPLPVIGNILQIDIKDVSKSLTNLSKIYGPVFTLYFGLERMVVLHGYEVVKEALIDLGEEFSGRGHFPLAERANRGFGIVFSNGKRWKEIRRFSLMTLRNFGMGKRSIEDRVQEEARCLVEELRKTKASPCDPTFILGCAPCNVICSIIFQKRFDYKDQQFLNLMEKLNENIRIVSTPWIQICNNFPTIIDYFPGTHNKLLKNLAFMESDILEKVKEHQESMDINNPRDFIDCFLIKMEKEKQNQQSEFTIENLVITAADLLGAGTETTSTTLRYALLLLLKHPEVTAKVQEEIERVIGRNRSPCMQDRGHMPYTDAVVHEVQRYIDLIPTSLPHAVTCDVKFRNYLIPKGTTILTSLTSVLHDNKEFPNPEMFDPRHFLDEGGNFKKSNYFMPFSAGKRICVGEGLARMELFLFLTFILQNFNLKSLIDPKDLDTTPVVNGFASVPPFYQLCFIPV
Chain of Cytochrome P450 3A4 (P08684 whole entry): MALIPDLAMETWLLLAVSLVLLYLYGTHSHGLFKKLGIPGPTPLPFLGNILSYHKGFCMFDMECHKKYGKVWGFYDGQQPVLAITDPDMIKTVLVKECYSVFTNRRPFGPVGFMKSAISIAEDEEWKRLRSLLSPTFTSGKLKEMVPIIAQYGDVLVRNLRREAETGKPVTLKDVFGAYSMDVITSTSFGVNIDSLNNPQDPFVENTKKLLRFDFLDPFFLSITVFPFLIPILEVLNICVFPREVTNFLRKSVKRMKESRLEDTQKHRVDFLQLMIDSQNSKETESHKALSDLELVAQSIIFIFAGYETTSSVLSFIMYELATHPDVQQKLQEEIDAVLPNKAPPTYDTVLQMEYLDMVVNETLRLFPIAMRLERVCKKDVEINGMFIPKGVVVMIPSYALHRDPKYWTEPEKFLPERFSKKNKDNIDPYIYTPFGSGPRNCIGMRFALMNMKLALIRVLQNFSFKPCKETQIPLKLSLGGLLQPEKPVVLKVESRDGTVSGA

`COc1cc(/C=N/NC(=O)C2C3CCCCC32C)cc(Br)c1O` (configuration not stated): the AC50 in data set [1] is 0.272 µM (active).

In the case of `COc1ccccc1N1CCN(CCCCN2C(=O)CCC2=O)CC1`, at Cytochrome P450 1A2, the AC50 is 39.8 µM (inconclusive).

Take `CCN(CCCNC(=O)C1CCC(=O)N1Cc1ccc(C)cc1)c1cccc(C)c1` (configuration not stated): in data set [1], the AC50 is 0.677 µM (active).

On to `Cc1csc2ncnc(N3CCN(C(S)=Nc4ccc(C(F)(F)F)cc4)CC3)c12`, for which the EC50 in [2], in data set [3] and in data set [4] was > 120 µM (not active) in each case.

For the compound `CCCC/C=C/C(NC(=O)C(C)(C)C)c1ccccc1` (configuration not stated), the AC50 on Cytochrome P450 2D6 was 20 µM (inconclusive); on Cytochrome P450 1A2 it was 20 µM (inconclusive); on Cytochrome P450 2C9 it was 39.8 µM (inconclusive).

As to `Cc1c(C(=O)NCCCN2CCCCC2)oc2ccc3c(c12)C(O)CC1(CCCCC1)O3` (configuration not stated), the EC50 in data set [2], in data set [3] and in data set [4] was > 120 µM (not active) in each case.

Consider `Cc1cc(N2CCOCC2)nc(N)n1`, for which, in data set [5], the EC50 is 10.4 µM (active).

Consider `COc1ccc(-c2ccc(C3C(C#N)=C(N)Oc4[nH]nc(C)c43)o2)cc1` (configuration not stated), for which the EC50 in data set [5] is 10.1 µM (active).

As for `Cc1cc(CC(=O)O)n(C)c1C(=O)c1ccc(Cl)cc1` [ZOMEPIRAC SODIUM], at Cytochrome P450 1A2, the half-maximal activity concentration (AC50) is 12.6 µM (inconclusive).

Consider `O=C=Nc1ccc(Cc2ccc(N=C=O)cc2)cc1.O=c1oc(=O)c2cc3c(=O)oc(=O)c3cc12`, for which the AC50 on Cytochrome P450 1A2 was 5.01 µM (inconclusive).

In the case of `CN1CCN(c2ncc3nc(-c4cccc(C#N)c4)c(=O)n(C)c3n2)CC1`, the values for the concentration at half-maximal activity (AC50) at Cytochrome P450 1A2 and at Cytochrome P450 2C9 were 12.6 µM (inconclusive) and 39.8 µM (inconclusive), respectively.

`Cc1nc2cncnc2n(-c2ccccc2)c1=O`: the figures for the AC50 on Cytochrome P450 1A2, at Cytochrome P450 3A4 and on Cytochrome P450 2C9 were 10 µM (inconclusive), 12.6 µM (inconclusive) and 39.8 µM (inconclusive), respectively.

With `CCCCC(=O)NNC(=O)N1c2ccccc2Sc2ccccc21`, the AC50 in data set [1] is 0.919 µM (active).

As for `CC(/C=N\NC(=O)Cn1c(C)nc2ccccc21)=C\c1ccccc1`, the values for the AC50 at Cytochrome P450 2C19 (read-out: AC50) and at Cytochrome P450 1A2 were 0.562 µM (inconclusive) and 8.91 µM (inconclusive), respectively.

For the compound `CCN(CC)c1ccc(CN2CCCCCC2)cc1`, the AC50 in data set [1] was 3.84 µM (active).

On to `COc1ccc(C(=O)N2CCC3(CC2)CCN(c2ccncc2)CC3)cc1`, for which the AC50 at Cytochrome P450 2D6 was 15.8 µM (inconclusive); on Cytochrome P450 1A2 it was 39.8 µM (inconclusive); at Cytochrome P450 3A4, 15.8 µM (inconclusive).

As for `COc1cc2c(cc1OC)C(C(=O)Nc1ccccn1)C(c1cccnc1)N(C)C2=O` (configuration not stated), the results for the AC50 on Cytochrome P450 1A2 and at Cytochrome P450 2C9 were 25.1 µM (inconclusive) and 11.2 µM (inconclusive), respectively.

For the compound `Nc1nc(OCC2CCCCC2)c2nc[nH]c2n1`, the EC50 was 16.5 µM (active) in data set [2], 15.8 µM (active) in data set [3] and 13.7 µM (active) in [4].

For the compound `COC(=O)c1ccc(CSc2nc(O)c3cnn(-c4ccc(C)cc4)c3n2)o1`, the EC50 in [2] is 23.9 µM (active); in data set [3] it was > 120 µM (not active); in [4] it was > 120 µM (not active).

On to `Cc1noc(C)c1-c1ccc2ncnc(N3CCC(C(=O)O)CC3)c2c1`, for which the AC50 on Cytochrome P450 1A2 is 25.1 µM (inconclusive).

As for `CCN(CC)c1ccc(/C=N/NC(=O)c2cccc(N3CCCC3=O)c2)cc1`, the AC50 in data set [1] was 2.14 µM (active).

Consider `N#C/C(=C/c1ccc(-c2ccc([N+](=O)[O-])cc2)o1)c1nnc(N2CCOCC2)n1-c1ccccc1`, for which, in data set [5], the EC50 is 11 µM (active).

`NCCCCCCCCCCNS(=O)(=O)c1cccc2c(Cl)cccc12`: the half-maximal activity concentration (AC50) at Cytochrome P450 1A2 was 15.8 µM (inconclusive).

Consider `Cc1ccc(CN2CC34C=CC(O3)C(C(=O)NCc3ccc5c(c3)OCO5)C4C2=O)cc1` (configuration not stated), for which the AC50 at Cytochrome P450 1A2 was 17.8 µM (inconclusive); at Cytochrome P450 2C9, 12.6 µM (inconclusive).

As for `c1ccc2c(CCNc3ncnc4nc[nH]c34)c[nH]c2c1`, the AC50 in [1] is 3.85 µM (active).

As to `CCOC(=O)c1c(/N=C/C2C(=O)NC(=S)NC2=O)sc2c1CCC2`, the EC50 in data set [5] was > 53 µM (inactive).

`CCC(C)(C)n1nnnc1CN(Cc1cccs1)Cc1cc2cc(OC)ccc2nc1O`: the EC50 in data set [2] was 30.6 µM (active); in data set [3] it was > 120 µM (not active); in data set [4] it was > 120 µM (not active).

As to `CC(C)(C)c1ccc(NC(=O)N2CCCN(c3c(Cl)cncc3Cl)CC2)cc1`, in data set [6], the AC50 was 0.601 µM (active).

Take `CC(C)c1cc(-c2cc(-c3ccccc3)on2)nc(NC2CCCC2)n1`: in [6], the AC50 is 10.1 µM (active).

On to `CCCCn1cnc2c(c(CC#N)nn2-c2ccccc2)c1=N`, for which the AC50 is 6.31 µM (inconclusive) on Cytochrome P450 2C19 (read-out: AC50) and 1 µM (inconclusive) on Cytochrome P450 1A2.

`O=C(c1ccc(Cl)cc1)c1c[nH]c(C(=O)NNc2ccccc2)c1`: the AC50 in data set [6] was 1.34 µM (active).

Turning to `CC(=O)Oc1ccc(C(=O)Nc2ccc(C3(C#N)CCCC3)cc2)cc1`, in [6], the AC50 is 1.83 µM (active).

For `Cn1c(-c2ccc3nc(N)sc3c2)nc2cc(N)ccc21`, the concentration at half-maximal activity (AC50) in data set [1] is 0.384 µM (active).

On to `CCOC(=O)c1[nH]c2ccccc2c1NC(=O)c1ccc(S(=O)(=O)N2CCCCC2)cc1`, for which the EC50 is 18.7 µM (active) in data set [2], > 120 µM (not active) in [3] and 83.1 µM (active) in [4].

For `CCN(CC)Cc1c(O)c(Cl)cc2c3c(c(=O)oc12)CCCC3`, the AC50 result at Cytochrome P450 2C19 was “inconclusive”; on Cytochrome P450 1A2, 11.2 µM (inconclusive); on Cytochrome P450 2C9 it was 25.1 µM (inconclusive).

With `CC1(c2ccc(Cl)cc2)NC(=O)N(CN2CCOCC2)C1=O` (configuration not stated), the IC50 on Protein skinhead-1 is > 100 µM (inactive).

As to `Cn1nc(C(=O)N2CCN(S(=O)(=O)c3ccccc3)CC2)c2ccccc2c1=O`, the IC50 at Protein skinhead-1 is > 100 µM (inactive).

In the case of `O=C(NCC(c1cccnc1)N1CCN(c2ccccc2)CC1)C1CCCCC1` (configuration not stated), the AC50 in data set [1] was 19.4 µM (active).

`Cc1cc2ccccc2n1CCNC(=O)c1ccc(S(=O)(=O)N2CCOCC2)cc1`: at Protein skinhead-1, the IC50 was > 100 µM (inactive).

`O=C(NCCNS(=O)(=O)c1ccccc1Cl)c1cc(OCC(F)(F)F)ccc1OCC(F)(F)F`: the AC50 is 22.4 µM (inconclusive) at Cytochrome P450 2D6, 31.6 µM (inconclusive) at Cytochrome P450 1A2 and 12.6 µM (inconclusive) on Cytochrome P450 2C9.

What is called AC50 is the concentration at which the activity in the assay is half-maximal. In general, IC50 refers to the concentration that inhibits the measured activity by half.
